# Experimental data from US11006595B2, “Rice cultivar designated ‘CL153’” (Board of Supervisors of Louisiana State University and …, priority 2016, dated 2021).
# Test system: ‘CL153’ rice plant
# Assay: Herbicide tolerance and susceptibility of rice cultivar 'CL153'
# Type: in vivo, Oryza sativa
# Conditions: at levels of the herbicide that would normally inhibit the growth of a rice plant; partly actual observations, partly assumptions based on common ancestry with ‘CL161’
# Description: Among others, the herbicide tolerance and susceptibility characteristics of ‘CL153’ include or are expected to include the following.
row,SMILES,resistance or sensitivity of ‘CL153’ to the herbicide
1,CCOC(=O)c1ccccc1S(=O)(=O)NC(=O)Nc1nc(Cl)cc(OC)n1 [chlorimuron ethyl],sensitive
2,COCc1cnc(C2=NC(C)(C(C)C)C(=O)N2)c(C(=O)O)c1 (centres unmarked) [imazamox],resistant
3,Cc1cnc(C2=NC(=O)C(C)(C(C)C)N2)c(C(=O)O)c1 (centres unmarked) [imazapic],resistant
4,CC(C)C1(C)N=C(c2ncccc2C(=O)O)NC1=O (centres unmarked) [imazapyr],resistant
5,CC(C)C1(C)N=C(c2nc3ccccc3cc2C(=O)O)NC1=O (centres unmarked) [imazaquin],resistant
6,CCc1cnc(C2=NC(C)(C(C)C)C(=O)N2)c(C(=O)O)c1 (centres unmarked) [imazethapyr],resistant
7,COC(=O)c1ccccc1S(=O)(=O)NC(=O)Nc1nc(C)nc(OC)n1 [metsulfuron methyl],resistant
8,COc1cc(OC)nc(NC(=O)NS(=O)(=O)c2ncccc2C(=O)N(C)C)n1 [nicosulfuron],resistant
9,CCS(=O)(=O)c1cccnc1S(=O)(=O)NC(=O)Nc1nc(OC)cc(OC)n1 [rimsulfuron],sensitive
10,COC(=O)c1ccccc1S(=O)(=O)NC(=O)Nc1nc(C)cc(C)n1 [sulfometuron methyl],sensitive
11,COC(=O)c1sccc1S(=O)(=O)NC(=O)Nc1nc(C)nc(OC)n1 [thifensulfuron methyl],resistant
12,COC(=O)c1ccccc1S(=O)(=O)NC(=O)N(C)c1nc(C)nc(OC)n1 [tribenuron methyl],resistant

# Same assay, conditions: general statement; profile essentially identical to ‘CL161’
row,SMILES,resistance of ‘CL153’ to imidazolinone herbicides
1,COCc1cnc(C2=NC(C)(C(C)C)C(=O)N2)c(C(=O)O)c1 (centres unmarked) [imazamox],highly resistant
2,CCc1cnc(C2=NC(C)(C(C)C)C(=O)N2)c(C(=O)O)c1 (centres unmarked) [imazethapyr],highly resistant
